Data from patent US20230257715A1, “COMPOSITIONS AND METHODS FOR REGULATING ENTEROENDOCRINE CELL DIFFERENTIATION AND USES THEREOF” (The Children's Medical Center Corporation, priority 2020, published 2023).

Legend:
human duodenal enteroids [1] = assay: Single cell RNA sequencing of enteroids (cell type proportions, module score, scVelo trajectory); format: cell-based
Description: To better assess the transcriptomic distinctions between cells from the various culture conditions, single cell RNA sequencing (scRNA-seq) on the 10× platform combined with sample hashing was utilized, allowing the assessment of the reproducibility of the findings from distinct donors. Enteroids from three individuals were grown in G2D12, RSP or AS, for a total of nine samples. After the 14-day protocol, enteroids were isolated and processed into a single-cell suspension and their condition and patient source were marked using Hashtag antibodies prior to pooling the samples together (Stoeckius, M. et al. Genome Biol 19, 224, doi:10.1186/s13059-018-1603-1 (2018).)^47. After labeling, cells were processed, and single-cell transcriptomes were generated.
Enteroids were incubated in Cell Recovery solution for 40-60 minutes at 4° C. to remove the Matrigel® and then centrifuged at 500×g for 5 minutes at 4° C. To achieve single cell suspension, organoids were then incubated in 500 μL of TrypLE™ Express at 37° C. for 30 minutes and broken up by repeated pipetting using a bent P1000 pipette tip. Each sample was then diluted in 800 μL of 20% FBS in Advanced DMEM/F12, filtered through 37 μm mesh, and then centrifuged at 300×g for 10 minutes at 4° C. Dead cells were then removed using magnetic-activated cell sorting (MACS) separation following the manufacturer's protocol. Briefly, each sample was resuspended in 100 μL Dead Cell Removal MicroBeads (Miltenyi Biotec) and incubated at room temperature for 15 minutes. 400 μL of 1×Binding Buffer was then added to each sample, after which the samples were applied to prepared MACS columns placed in a MACS Separator. Flow-through containing live cells was collected. This was followed by washing the columns four times with 1× Binding Buffer, which were combined with the initial flow-through. These samples were then centrifuged at 800×g for 5 minutes at 4° C.
Single cells isolated after dead cell removal (see, Example 18) were labeled prior to sequencing with Totalseq™-B hashtag antibodies (Biolegend), targeted against CD298 and β2-microglobulin, per the manufacturer's protocol^47. Briefly, each of the nine samples (three separate differentiation conditions in three enteroid lines) were resuspended in 50 μL of Cell Staining Buffer (Biolegend) and blocked with […] of Human TruStain FcX^TM blocking reagent (Biolegend) for 10 minutes at 4° C. The supernatant was then removed, and each sample resuspended in 50 μL of Cell Staining Buffer containing […] of a unique Totalseq™-B hashtag antibody. Samples were incubated for 30 minutes at 4° C. and then washed three times in 3.5 mL of Cell Staining Buffer. The samples were then filtered through a 37 μm mesh, resuspended in 2% BSA in PBS at a concentration of 1500 cells/μL, and then pooled together. Of note, prior to the scRNA-seq experiment, antibody binding was verified using fluorophore-conjugated antibodies with the same binding specificity.
A total of 180,000 cells as one pool were inputted across four channels, with a recovery rate of approximately 30,000 cells across all four channels. RNA libraries were prepared from single cells by the Single Cell Core at Harvard Medical School, Boston, Mass., using the 10× Chromium Single Cell 3′ Library Chip (V3.1) with dual indexed barcodes. Briefly, single cells were partitioned into Gel Beads in Emulsion (GEMs) by the Chromium Controller. […]

human duodenal enteroids [2] = assay: Flow cytometry of CHGA+ cells from enteroids; format: cell-based
Description: Organoids were incubated in Cell Recovery solution for 40-60 minutes at 4° C. to remove the Matrigel® and then centrifuged at 500×g for 5 minutes at 4° C. To achieve single cell suspension, organoids were then incubated in 500 μL of TrypLE™ Express (Thermo Fisher Scientific) at 37° C. for 30 minutes and broken up by repeated pipetting using a bent P1000 pipette tip. Each sample was then diluted in 800 μL of 20% FBS in Advanced DMEM/F12 and then centrifuged at 800×g for 5 minutes at 4° C. To mark dead cells, each sample was then incubated in DAPI (1:1000) diluted in 2% FBS/2 mM EDTA/calcium-free DMEM for 20 minutes at room temperature, then centrifuged at 800×g for 5 minutes at 4° C. and washed in 2% FBS/2 mM EDTA/DMEM. Cells were then incubated in 1% PFA for 15 minutes at room temperature, washed with 2% FBS/PBS and then permeabilized in 0.2% Tween 20 in 2% FBS/PBS for 15 minutes at 37° C. Following centrifugation, cells were resuspended in 0.1% Tween 20/2% FBS/2 mM EDTA in PBS with PE/Alexa Fluor 647-conjugated CHGA (BD Biosciences, 564563, 1:100) or PE/Alexa Fluor 647-conjugated mouse IgG1, K isotype, (BD Biosciences, 554680, 1:200) or with no antibody (the latter two acting as controls) for 30 minutes on ice. Cells were then washed in 0.1% Tween 20/2% FBS/2 mM EDTA in PBS, filtered through a 37-micron mesh, and then analyzed on a BD FACSAria II SORP flow cytometer. […]

[3] = three enteroid lines, 14-day protocol

CCn1cc(C(=O)O)c(=O)c2c(N)c(F)c(NC3CCCCC3)cc21 [AS, AS1842856]
EE Cell Gene Module Score, effect size between culture conditions (Cohen's d) (human duodenal enteroids [1]; reference gene set from mouse EE cells): larger effect size than RSP | proportion of EE cells (scRNA-seq) (human duodenal enteroids [1]; [3]): 18% | proportion of enterocytes (scRNA-seq) (human duodenal enteroids [1]; [3]): 2.5% | proportion of goblet cells (scRNA-seq) (human duodenal enteroids [1]; [3]): 1.5% | proportion of stem cells (scRNA-seq) (human duodenal enteroids [1]; [3]): 42% | differentiation trajectory (scVelo RNA velocity) (human duodenal enteroids [1]; vector field on UMAP): the majority of vectors moving towards the goblet cell cluster and then into the EE cluster | number of CHGA+ cells relative to the number seen with G2D12 alone (human duodenal enteroids [2]): ~50 times
